Source: patent US6989384B2, “Antipicornaviral compounds and compositions, their pharmaceutical uses, and materials for their synthesis” (Agouron Pharmaceuticals, Inc., priority 2000, dated 2006)

molecular target: T1, rhinovirus 3C protease from HRV serotype-14 (Human rhinovirus 14, UniProt P03303); assay: Inhibition of rhinovirus 3C protease activity (FRET assay), HRV-14; type: biochemical; conditions: HRV-14 3C protease; progress curves, enzyme start; read-out: Protease Inhibition kobs/I
T1 construct: Recombinant rhinovirus 3C proteases; made in house
Description: Stock solutions (50 mM, in DMSO) of various compounds were prepared; dilutions were in the same solvent. Recombinant rhinovirus 3C proteases (see Birch et al., “Purification of recombinant human rhinovirus 14 3C protease expressed in Escherichia coli,” Protein Expr. Pur. 1995, 6(5), 609–618) from serotypes 14, 16, and 2 were prepared by the following standard chromatographic procedures: (1) ion exchange using Q Sepharose Fast Flow from Pharmacia; (2) affinity chromatography using Affi-Gel Blue from Biorad; and (3) sizing using Sephadex G-100 from Pharmacia. Each assay sample contained 2% DMSO, 50 mM tris pH 7.6, 1 mM EDTA, a test compound at the indicated concentration, approximately 1 μM substrate, and 50–100 nM protease. The kobs/I values were obtained from reactions initiated by addition of enzyme rather than substrate. RVP activity was measured in the fluorescence resonance energy transfer assay. The substrate was (N-terminal) DABCYL-(Gly-Arg-Ala-Val-Phe-Gln-Gly-Pro-Val-Gly)-EDANS. In the uncleaved peptide, the EDANS fluorescence was quenched by the proximal DABCYL group. When the peptide was cleaved, the quenching was relieved, and activity was measured as an increase in fluorescence signal. In the Table, unless otherwise indicated, all data are for rhinovirus 3C protease from HRV serotype-14 (produced from the infectious cDNA clone constructed by Dr. Robert Rueckert, Institute for Molecular Virology, University of Wisconsin, Madison, Wis.). The data in the column designated kobs/[I] were measured from progress curves in enzyme start experiments.

T1 sequence (P03303 1538-1719): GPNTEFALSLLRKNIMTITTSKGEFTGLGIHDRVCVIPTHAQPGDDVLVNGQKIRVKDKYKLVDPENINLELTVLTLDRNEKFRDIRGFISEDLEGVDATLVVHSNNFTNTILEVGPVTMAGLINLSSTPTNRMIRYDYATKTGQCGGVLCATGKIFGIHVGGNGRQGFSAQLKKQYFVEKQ

kinact/KI [M⁻¹ s⁻¹] | SMILES
173 | CCOC(=O)/C=C/[C@H](C[C@@H]1CCNC1=O)NC(=O)/C=C/c1ccc(OC)c(OC)c1 [Compound 5, 4S-[3-(3,4-dimethoxy-phenyl)-acryloylamino]-5-(2-oxo-pyrrolidin-3S-yl)-pent-2-enoic acid ethyl ester]
200 | CCOC(=O)/C=C/[C@H](C[C@@H]1CCNC1=O)NC(=O)Nc1ccccc1Oc1ccccc1 [Compound 55, 5-(2-oxo-pyrrolidin-3S-yl)-4S-[3-(2-phenoxy-phenyl)-ureido]-pent-2-enoic acid ethyl ester]
79 | CCOC(=O)/C=C/[C@H](C[C@@H]1CCNC1=O)NC(=O)c1cncc(Br)c1 [Compound 6, 4S-[(5-bromo-pyridine-3-carbonyl)-amino]-5-(2-oxo-pyrrolidin-3S-yl)-pent-2-enoic acid ethyl ester]
315 | CCOC(=O)/C=C/[C@H](C[C@@H]1CCNC1=O)NC(=O)/C=C/c1cccc(O)c1 [Compound 17, 4S-[3-(3-hydroxy-phenyl)-acryloylamino]-5-(2-oxo-pyrrolidin-3S-yl)-pent-2-enoic acid ethyl ester]
1270 | CCOC(=O)/C=C/[C@H](C[C@@H]1CCNC1=O)NC(=O)c1cc2cc(Cl)ccc2[nH]1 [Compound 40, 4S-[(5-Chloro-1H-indole-2-carbonyl)-amino]-5-(2-oxo-pyrrolidin-3S-yl)-pent-2-enoic acid ethyl ester]
272 | CCOC(=O)/C=C/[C@H](C[C@@H]1CCNC1=O)NC(=O)c1cc2cccc([N+](=O)[O-])c2[nH]1 [Compound 42, 4S-[(7-Nitro-1H-indole-2-carbonyl)-amino]-5-(2-oxo-pyrrolidin-3S-yl)-pent-2-enoic acid ethyl ester]
225 | CCOC(=O)/C=C/[C@H](C[C@@H]1CCNC1=O)NC(=O)/C=C/C(=O)Nc1c(C)cc(C)cc1C [Compound 50, 5-(2-Oxo-pyrrolidin-3S-yl)-4S-[3-(2,4,6-trimethylphenylcarbamoyl)-acryloylamino]-pent-2-enoic acid ethyl ester]
7 | CCOC(=O)/C=C/[C@H](C[C@@H]1CCNC1=O)NC(=O)Cc1cccc(Cl)c1 [Compound 63, 4S-[2-(3-chloro-phenyl)-acetylamino]-5-(2-oxo-pyrrolidin-3S-yl)-pent-2-enoic acid ethyl ester]
400 | CCOC(=O)/C=C/[C@H](C[C@H]1CCNC1=O)NC(=O)c1ccc2ccccc2c1 [Compound 2, 4S-[(naphthalene-2-carbonyl)-amino]-5-(2-oxo-pyrrolidin-3-R-yl)-pent-2-enoic acid ethyl ester]
283 | CCOC(=O)/C=C/[C@H](C[C@@H]1CCNC1=O)NC(=O)c1cc2ccccc2[nH]1 [Compound 47, 4S-[(1H-Indole-2-carbonyl)-amino]-5-(2-oxo-pyrrolidin-3S-yl)-pent-2-enoic acid ethyl ester]
169 | CCOC(=O)/C=C/[C@H](C[C@@H]1CCNC1=O)NC(=O)C1CSC(c2ccccc2)N1C(C)=O (stereo partly drawn) [Compound 13, 4S-[(3-acetyl-2-phenyl-thiazolidine-4-carbonyl)-amino]-5-(2-oxo-pyrrolidin-3S-yl)-pent-2-enoic acid ethyl ester]
664 | CCOC(=O)/C=C/[C@H](C[C@@H]1CCNC1=O)NC(=O)/C=C/c1ccc(OC)cc1 [Compound 16, 4S-[3-(methoxy-phenyl)-acryloylamino]-5-(2-oxo-pyrrolidin-3S-yl)-pent-2-enoic acid ethyl ester]
1830 | CCOC(=O)/C=C/[C@H](C[C@@H]1CCNC1=O)NC(=O)c1cc2cc(OC)c(OCc3ccccc3)cc2[nH]1 [Compound 46, 4S-[(6-Benzyloxy-5-methoxy-1H-indole-2-carbonyl)-amino]-5-(2-oxo-pyrrolidin-3S-yl)-pent-2-enoic acid ethyl ester]
615 | CCOC(=O)/C=C/[C@H](C[C@@H]1CCNC1=O)NC(=O)c1cc2cc(F)ccc2[nH]1 [Compound 39, 4S-[(5-Fluoro-1H-indole-2-carbonyl)-amino]-5-(2-oxo-pyrrolidin-3S-yl)-pent-2-enoic acid ethyl ester]
